Laboratory results taken from US8044094B2, “Agents for preventing and treating disorders connected to impaired neurotransmission” (DSM IP Assets B.V., priority 2004, dated 2011).

Assays:
[1] = target: human serotonin re-uptake transporter (hSERT) (Homo sapiens, UniProt P31645); assay: Labeled citalopram displacement from hSERT containing membranes (SPA); assay type: binding; details: hSERT containing membranes; Ki from IC50 by Cheng-Prusoff; 3.3 nM (3H) citalopram; read-out: Inhibition constant Ki for tritiated citalopram displacement
Method: Membranes containing hSERT were prepared from the above cell line according to Galli et al, Journal of Experimental Biology 1995, 198, 2197-2212. 3 μg of membrane protein and 0.8 mg of wheat germ aglutinin coated SPA® (scintillation proximity assay) beads (Amersham Biosciences GE Healthcare, Slough, UK) per data point were mixed with radio-labeled (3H) citalopram (Amersham Biosciences GE Healthcare, Slough, UK) until a final concentration of 3.3 nM in 50 mM Tris-HCl, 300 mM NaCl (pH 7.4). After incubation for 18 hours at room temperature, the bound citalopram was quantified by liquid scintillation counting.
The effect of the coumarin ethers of formula I on the serotonin uptake and the citalopram binding was determined by its inclusion in the assay at a range of concentrations between 0.03 and 100 μM for 10 minutes prior to and during the addition of (3H) serotonin/citalopram. Serotonin uptake via the transporter and citalopram binding were both inhibited by the coumarin ethers of formula I in a dose dependent manner. The calculated inhibition constants Ki, derived from the measured IC50 using the Cheng—Prusoff equation (Y. C. Cheng, W. H. Prusoff, Biochem. Pharmacol. 1973, 22, p. 3099-3108), for inhibition of serotonin uptake and citalopram binding by coumarin ethers of the formula I are shown in Table 1.

[2] = target: T1, MAO-B (Homo sapiens, UniProt P27338); assay: MAO-B inhibition, Amplex Red Monoamine Oxidase Assay Kit, colorimetric; assay type: biochemical
T1 construct: purchased Sigma M7441
T1 sequence (P27338 1-520): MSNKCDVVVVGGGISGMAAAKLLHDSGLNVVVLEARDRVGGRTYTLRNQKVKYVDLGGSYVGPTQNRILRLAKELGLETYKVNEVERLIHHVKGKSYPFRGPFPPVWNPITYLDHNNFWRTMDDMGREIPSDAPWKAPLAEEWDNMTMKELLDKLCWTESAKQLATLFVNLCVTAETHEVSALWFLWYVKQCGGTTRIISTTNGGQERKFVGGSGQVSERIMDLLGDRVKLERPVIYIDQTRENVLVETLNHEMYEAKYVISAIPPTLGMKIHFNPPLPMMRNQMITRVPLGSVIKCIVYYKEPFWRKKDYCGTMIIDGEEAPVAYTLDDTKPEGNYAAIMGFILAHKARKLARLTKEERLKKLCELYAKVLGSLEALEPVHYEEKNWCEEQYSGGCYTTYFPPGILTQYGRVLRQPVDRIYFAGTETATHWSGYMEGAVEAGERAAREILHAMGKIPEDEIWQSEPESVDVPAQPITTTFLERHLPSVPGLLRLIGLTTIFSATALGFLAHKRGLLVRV
Method: From a stock solution of 0.0405 g of racemic obliquin (92.5%; equal to 37.5 mg of pure compound) in 750 μl of dimethylsulfoxide (DMSO), working solutions were prepared with a concentration of obliquin of 4. 10^−4M in reaction buffer (0.05 M sodium phosphate, pH 7.4, 0.2% DMSO). The final concentrations of obliquin in the test system were 10^−4 M, 10^−5 M, 10^−6 M, 10^−7 M.
For determining the inhibition of monoaminoxidases' activity, the Amplex Red Monoamine Oxidase Assay Kit (Molecular Probes Nr._A-12214, Colorimetric version) was conducted according to manufacturers instructions.
As substrates for MAO-A enzyme (Sigma Nr. M7316) p-tyramine and as substrate for MAO-B enzyme (Sigma Nr. M7441) benzylamine were used. The concentration of MAO-A enzyme was 8 Units/ml, and that of MAO-B 4 Units/ml in the working solution.
MAO-A and MAO-B Assay, Colorimetric Version:
For the assay, 50 μl of each working solution (see above) were used. As control solution, the obliquin containing working solution was replaced by 50 μl of the reaction buffer.
50 μl of diluted MAO-A with a final concentration of 2 Units/ml and 50 μl of diluted MAO-B with a final concentration of 1 Unit/ml, respectively, were added.
100 μl of the Amplex solution containing horseradish peroxidase (2 U/ml) and the substrate tyramine (for MAO-A) or the substrate benzylamine (for MAO-B) were added.
To allow a subtraction of the background absorption a mixture of 100 μl of the Amplex solution and 100 μl of the reaction buffer was measured as a “blank”.
The samples were incubated at room temperature in the dark for 1 hour, and then the extinction at 535 nm determined in a Softmax Microplate photometer (Molecular Device).

human serotonin re-uptake transporter (hSERT), sequence (P31645 whole entry): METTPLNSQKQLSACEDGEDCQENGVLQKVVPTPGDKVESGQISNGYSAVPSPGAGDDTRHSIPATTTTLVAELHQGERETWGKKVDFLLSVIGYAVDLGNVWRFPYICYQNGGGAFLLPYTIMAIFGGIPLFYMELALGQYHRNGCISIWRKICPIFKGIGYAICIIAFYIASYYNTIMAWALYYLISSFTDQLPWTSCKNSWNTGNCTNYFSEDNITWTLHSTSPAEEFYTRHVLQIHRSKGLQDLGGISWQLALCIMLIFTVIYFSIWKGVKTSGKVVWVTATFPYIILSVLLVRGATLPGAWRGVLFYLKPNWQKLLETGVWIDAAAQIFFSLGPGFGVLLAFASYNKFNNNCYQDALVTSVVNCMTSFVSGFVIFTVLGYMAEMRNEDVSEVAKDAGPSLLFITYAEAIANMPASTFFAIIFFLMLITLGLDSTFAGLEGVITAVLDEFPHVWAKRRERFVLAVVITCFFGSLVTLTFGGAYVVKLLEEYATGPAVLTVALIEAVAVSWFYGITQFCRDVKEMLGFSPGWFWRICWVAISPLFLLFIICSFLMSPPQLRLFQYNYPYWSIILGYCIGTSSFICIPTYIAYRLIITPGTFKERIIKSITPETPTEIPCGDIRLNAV

For C=C(C)[C@H]1COc2cc3oc(=O)ccc3cc2O1 (racemic) [Obliquin, obliquin], the Ki [1] was 6.1 µM, the “MAO inhibition specificity MAO-B versus MAO-A” value ([2]; compared with MAO-A) was “higher specificity for MAO-B than for MAO-A” and the inhibition at 0.1 µM ([2]; obliquin 1 x 10^−7 M, substrate benzylamine) was 8.3%. It also gave an inhibition at 1 µM ([2]; obliquin 10 x 10^−7 M, substrate benzylamine) of 33.3%, an inhibition at 10 µM ([2]; obliquin 100 x 10^−7 M, substrate benzylamine) of 76.9% and an inhibition at 100 µM ([2]; obliquin 1000 x 10^−7 M, substrate benzylamine) of 91.5%.
